# Measured values: patent US6030961A, “Oxyalkylene phosphate compounds and uses thereof” (Bar-Ilan Research & Development Co., Ltd., priority 1997, dated 2000)
# pIC50: −log10 of the molar value. “Also recorded” adds a separate entry of the source. Like-named read-outs stand apart in the source and are kept apart here.
# Legend:
# [1] = test system: pancreatic cell line, BxPC-3; assay: Colony-forming assay, 24 hour exposure; assay type: cell-based, human; settings: 24 hour treatment
# Experimental: The effect of 24 hour exposure to BODP or AB was determined by a colony-forming assay on the pancreatic cell line, BxPC-3, which is a primary adenocarcinoma (ACTTnr:CRL-1687). Freshly trypsinized cells were plated at 500 cells/dish in 60 mm^2 tissue culture dishes with the indicated concentration of each compound and incubated for 24 hours at 37° C. in 5% CO2 /air atmosphere. The cultures were washed with PBS, fresh medium was added, and the cultures were incubated for 7-12 days to allow the formation of colonies. Colonies were fixed with methanol, stained with Giemsa and counted. All incubations were performed in triplicate.
# K562 cells [2] = assay: Hb-containing K562 cells by benzidine staining; assay type: cell-based; settings: for extent of differentiation, dose dependence: hemoglobin accumulation, K562
# SMS-KCN [3] = assay: cells; settings: Homo sapiens
# Experimental: (§1) The cell lines listed in Table 2 were grown to 70-80% confluence in complete medium (RPMI 1640 containing 10% fetal calf serum (FCS), 100 IU penicillin, 100 μg/mL streptomycin and 2 mM L-glutamine). Cells were harvested, washed in complete medium and counted. Cell viability was determined by trypan blue exclusion. The cells were placed into soft agar (0.12% in media) and plated at 5,000 viable cells per well onto an agarose underlayer (0.4%) in 24-well plates. After overnight culture, AB or BODP was added at the indicated concentration. Control cells received media alone. As a control for cell death, cells were treated with a superlethal dose of 10 μg/ml of cisplatin. The dosage of AB or BODP which inhibited fifty percent or ninety percent of cell proliferation (IC50 or IC90 respectively) was calculated using the Chou Analysis' Median Effective Dose equation.
# (§2) Clonogenicity is determined as the percentage of clones in treated cultures relative to clones in mediumun-treated control cultures.
# [4] = test system: β-thalassemia and sickle-cell anemia patients; settings: cited from earlier work
# NGP = assay: Clonogenicity (soft agar) of established tumor cell lines, NGP
# Experimental: as §1, §2
# human tumor cell lines = assay: Clonogenicity of established tumor cell lines, summary over cell lines
# Experimental: as §1, §2
# [5] = U.S. Pat. No. 5,200,553; Nudelman et al.; cited from earlier work
# neoplastic cells = settings: in vitro; cited from earlier work
# nuclear deacetylase(s) = settings: cited from earlier work
# B16 melanoma = settings: cited from earlier work
# [6] = test system: HL-60 promyelocytic leukemia; settings: cited from earlier work
# cancer patients = settings: cited from earlier work
# [7] = test system: expression of transfected DNA; settings: cited from earlier work
# [8] = cited from earlier work
# K562 cells [9] = assay: Total Hb content of K562 cultures by HPLC; assay type: cell-based; settings: molar basis vs AB; FIG. 5
# Experimental: (2) Quantitative measurement of fetal hemoglobin (HbF) in K562 culture or human erythroid cultures was determined by ion-exchange high pressure liquid chromatography (HPLC) as described by Fibach et al., Blood 81:1630-1635, 1993.
# K562 cells: K562 is an erythroblast cell line (obtained from the ATCC, Rockville, Md.) that develops some properties of erythroid, megakaryocyte or monocyte cells, depending on the specific stimulus, when induced by different chemicals. K562 cells were grown in RPMI medium with 10% FCS, supplemented with 2 mM glutamine. Cells were incubated at 37° C. in a humidified, 5% CO2 incubator.
# SMS-KCN [10] = test system: SMS-KCN
# Experimental: as §1, §2
# NBAS-5 = assay: Clonogenicity (soft agar) of established tumor cell lines, NBAS-5
# Experimental: as §1, §2
# IMR-32 = assay: Clonogenicity (soft agar) of established tumor cell lines, IMR-32
# Experimental: as §1, §2
# LA1-5S = assay: Clonogenicity (soft agar) of established tumor cell lines, LA1-5S
# Experimental: as §1, §2
# SK-N-SH = assay: Clonogenicity (soft agar) of established tumor cell lines, SK-N-SH
# Experimental: as §1, §2
# SK-N-MC = assay: Clonogenicity (soft agar) of established tumor cell lines, SK-N-MC
# Experimental: as §1, §2
# NBL-W-N = assay: Clonogenicity (soft agar) of established tumor cell lines, NBL-W-N
# Experimental: as §1, §2
# SMS-KAN = assay: Clonogenicity (soft agar) of established tumor cell lines, SMS-KAN
# Experimental: as §1, §2
# [11] = test system: human colon carcinoma, leukemia and retinoblastoma cell lines; settings: in vitro; cited from earlier work
# [12] = test system: reporter gene in primary and immortalized cell lines; settings: cited from earlier work
# Experimental for HL-60 cells: The level of CD11b was measured on HL-60 cells by flow cytometry using a monoclonal antibody (MAb) against CD11b in a standard indirect immunofluorescence assay. Cells were cultured for three or six days with the indicated concentration of BODP. Cultured cells were collected by centrifugation, resuspended at 10^6 cells per 20 μl RPMI+10% FCS and incubated with MAb for 30 minutes at 4° C. The cells were washed twice in cold PBS+10% FCS and incubated with a 1:20 dilution of FITC-conjugated F(ab')^2 fragment of rabbit anti-mouse IgG for 20-30 minutes at 4° C. in the dark. After washing the cells twice in cold PBS+10% FCS, flow cytometry was performed on a FACSstar (Becton Dickson) using an argon ion laser adjusted to excitation wavelength of 488 nm on samples containing 10^4 cells.
smiles,measurement,setting,value
"CCCC(=O)O [AB, arginine butyrate, reference compound]",growth inhibition at 100 μM,[1]; 100 μM,did not cause complete growth inhibition
same,"extent of differentiation, dose dependence",K562 cells [2],directly related to the drug dose
same,increase in CD11b at the same concentration,HL-60 cells; 40 μM,no increase in CD11b
same,expression of CD11b,HL-60 cells; 800 μM,12%
same,pIC50,SMS-KCN [3],2.73
same,clinical efficacy,[4]; clinical trials,moderate efficacy
same,side effects,[4]; β-thalassemia and sickle-cell anemia patients,"hypokalemia, headache, nausea and vomiting"
same,pIC50,NGP; Homo sapiens,3.71
same,IC90,NGP; Homo sapiens,1620 µM
same,"inhibition of cell proliferation, dose dependence",human tumor cell lines,inhibit cell proliferation in a dose-dependent manner
"CCCC(=O)OCOC(=O)C(C)(C)C [AN-9, pivaloyloxymethyl butyrate]",activity among butyric acid prodrugs,[5],most active
"CCCC(=O)O [BA, Butyric acid]",differentiating and antiproliferative activity,neoplastic cells,potent differentiating and antiproliferative agent
same,effect on nuclear deacetylase(s) and histone acetylation,nuclear deacetylase(s),"inhibition of nuclear deacetylase(s), resulting in hyperacetylation of histones H3 and H4"
same,expression of c-myc and H-ras oncogenes,B16 melanoma,decrease in the expression of c-myc and H-ras oncogenes
same,expression of c-myc,[6],decrease
same,clinical efficacy in cancer patients,cancer patients; BA and BA salts,minimal or transient efficacy
same,odor in patients,cancer patients; patients receiving BA,unpleasant odor
same,expression of transfected DNA,[7],increase the expression of transfected DNA
same,half-life in vivo,[8],very short half-lives in vivo
same,metabolism,[8]; in vivo,metabolized rapidly
"CCCC(=O)OCOP(=O)(OCC)OCC [BODP, butyroyloxymethyl diethyl phosphate]",concentration causing complete inhibition,[1],above 50 μM
same,"growth inhibition, dose dependence",[1],dose-ependent growth inhibition
same,"extent of differentiation, dose dependence",K562 cells [2],directly related to the drug dose
same,proportion of Hb-containing cells per total cell population,"K562 cells [2]; molar basis vs AB, 5 days exposure, FIG. 4",higher proportion of Hb-containing cells
same,total Hb content of the cultures,K562 cells [9],higher activity in inducing erythroid differentiation
same,pIC50,SMS-KCN [10],4.27
same,Ratio AB/BODP IC50,SMS-KCN [10],34.7
same,increase of CD11b expression over untreated cells,"HL-60 cells; 40 μM, four days, 5760 min",7 fold
same,"differentiation induction, in words",HL-60 cells; BODP vs AB,more active differentiation inducer compared to AB
same,pIC50,NGP,4.77
same,IC90,NGP,49 µM
same,Ratio AB/BODP IC50,NGP,11.6
same,Ratio AB/BODP IC90,NGP,33.1
same,pIC50,NBAS-5,4.68
same,IC90,NBAS-5,71 µM
same,Ratio AB/BODP IC50,NBAS-5,42
same,Ratio AB/BODP IC90,NBAS-5,183.5
same,pIC50,IMR-32,4.46
same,IC90,IMR-32,88 µM
same,Ratio AB/BODP IC50,IMR-32,25.2
same,Ratio AB/BODP IC90,IMR-32,40.5
same,pIC50,LA1-5S,4.42
same,IC90,LA1-5S,105 µM
same,Ratio AB/BODP IC50,LA1-5S,42.8
same,Ratio AB/BODP IC90,LA1-5S,25.5
same,pIC50,SK-N-SH,4.82
same,IC90,SK-N-SH,44 µM
same,Ratio AB/BODP IC50,SK-N-SH,66.5
same,Ratio AB/BODP IC90,SK-N-SH,77.2
same,pIC50,SK-N-MC,4.43
same,IC90,SK-N-MC,145 µM
same,Ratio AB/BODP IC50,SK-N-MC,5.8
same,Ratio AB/BODP IC90,SK-N-MC,9.1
same,pIC50,NBL-W-N,4.42
same,IC90,NBL-W-N,96 µM
same,Ratio AB/BODP IC50,NBL-W-N,12.9
same,Ratio AB/BODP IC90,NBL-W-N,32
same,pIC50,SMS-KAN,4.35
same,IC90,SMS-KAN,128 µM
same,Ratio AB/BODP IC50,SMS-KAN,25.3
same,Ratio AB/BODP IC90,SMS-KAN,16.2
same,"inhibition of cell proliferation, dose dependence",human tumor cell lines,inhibit cell proliferation in a dose-dependent manner
same,"growth inhibition / clonogenicity inhibition potency, in words",human tumor cell lines; BODP vs AB,more potent growth inhibitor than AB; also recorded: significantly more potent tumor cell clonogenicity inhibitor than AB
same,sensitivity of the cells to BODP compared with AB,human tumor cell lines; BODP vs AB,at least an order of magnitude more sensitive
same,"ratio of IC50 AB:IC50 BODP, median value",human tumor cell lines; median over cell lines,25.2
same,"ratio of IC90 AB:IC90 BODP, median value",human tumor cell lines; median over cell lines,28.75
"CCCC(=O)[O-].[Na+] [SB, sodium butyrate]",apoptosis,[11],produce apoptosis in vitro
CCCC(=O)OCC(COC(=O)CCC)OC(=O)CCC [Tributyrin],expression of a reporter gene,[12],enhance the expression of a reporter gene
